From patent US11753407B2, “Compounds for treating spinal muscular atrophy” (PTC Therapeutics, Inc., priority 2012, dated 2023)

Assays:
[1] = system: SMN2 mRNA in GM03813 SMA patient cells; test: Endogenous SMN2 mRNA end-point semi-quantitative RT-PCR splicing assay in cultured cells; assay type: cell-based, human; conditions: Type 1 SMA patient fibroblasts, increasing concentrations, 24 hr, end-point RT-PCR (FIG. 5)
Procedure: The endpoint reverse transcription-PCR splicing assay is used to visualize and quantify the levels of the full length and Δ7 SMN2 mRNA in primary cells and cell lines containing the SMN2 gene treated with a test compound.
Protocol. GM03813 SMA patient cells (5,000 cells/well) are seeded in 200 μL of cell culture medium (DMEM plus 10% FBS) in 96-well flat-bottom plates and the plate is immediately swirled to ensure proper dispersal of cells, forming an even monolayer of cells. Cells are allowed to attach for at least 4-6 hrs. Test compounds are serially diluted 3.16-fold in 100% DMSO to generate a 7-point concentration curve. A solution of test compound (1 μL, 200× in DMSO) is added to each test well and 1 μL DMSO is added to each control well. The plate is incubated for 24 hrs in a cell culture incubator (37° C., 5% CO2, 100% relative humidity). The cells are then lysed in Cells-To-Ct lysis buffer and the lysate is stored at −80° C.
SMN FL and Δ7 mRNA are identified using the following primers in Table 6. These primers hybridize to a nucleotide sequence in exon 6 (SMN Forward C, SEQ ID NO. 11) (nucleotide 43 to nucleotide 63) and exon 8 (SMN Reverse C, SEQ ID NO. 12) (nucleotide 51 to nucleotide 73) common to human SMN1 and SMN2 mRNA. Since the SMA patient cells used in Example 4 contain only the SMN2 gene, RT-PCR can visualize and quantify only SMN2 full-length and SMN2 Δ7 mRNA.
To synthesize cDNA, 5 μL of lysate, 4 μL of 5× iScript reaction mix, 1 μL of reverse transcriptase, and 10 μL of water are combined and incubated 5 min at 25° C. followed by 30 min at 42° C., followed by 5 min at 85° C. The cDNA solution is stored at −20° C.
To perform endpoint PCR, 5 μL of cDNA, 0.2 μL of 100 μM forward primer, 0.2 μL of 100 μM reverse primer, and 22.5 μL of polymerase super mix are combined in a 96 well semiskirted PCR plate. PCR is carried out at the following temperatures for the indicated time: Step 1: 94° C. (2 min), Step 2: 94° C. (30 sec), Step 3: 55° C. (30 sec), Step 4: 68° C. (1 min), then repeat Steps 2 to 4 for a total of 33 cycles, then hold at 4° C.
10 μL of each PCR sample is electrophoretically separated on a 2% agarose E-gel for 14 minutes stained with double-stranded DNA (dsDNA) staining reagents (e.g., ethidium bromide) and visualized using a gel imager.

[2] = system: Smn protein in SMA patient fibroblast cells (GM03813); test: Smn protein assay in cultured cells (SMN HTRF); assay type: cell-based, human; conditions: 48 hours; for Smn protein expression: SMA Type 1 patient fibroblast cells, SMN HTRF assay (FIG. 8); for EC1.5x for Smn protein expression / maximum fold (Fold) increase of Smn protein: SMA patient fibroblast cells; for EC1.5x for Smn protein expression: 7-point concentration curve, SMN HTRF, concentration producing 1.5 times Smn protein vs DMSO vehicle control; for maximum fold (Fold) increase of Smn protein: 7-point concentration data, fold relative to vehicle control
Procedure, shortened: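 Read-out: HTRF 665/620 nm ratio, blank-subtracted as ΔF, then expressed as fold over DMSO vehicle. Fibroblasts from SMA patients were exposed to compounds for 48 h (7 points, 3.16-fold steps, triplicates). Values are EC1.5× and maximum fold Smn increase.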

Compound	SMN2 FL mRNA [1]	SMN2 Δ7 mRNA [1]	Smn protein expression [2]	EC1.5x for Smn protein expression [2]	maximum fold (Fold) increase of Smn protein [2]
COc1ccc(-c2cc(=O)n3cc(N4CCNCC4)ccc3n2)cc1OC [Cpd 6, 2-(3,4-dimethoxyphenyl)-7-(piperazin-1-yl)-4H-pyrido[1,2-a]pyrimidin-4-one]	progressively more SMN2 FL mRNA	less SMN2 Δ7 mRNA	dose dependent increase in Smn protein expression	*** (an EC1.5× between >0.3 μM and ≤1 μM is indicated by three stars (***))	**** (a fold increase between >1.5 and ≤1.65 is indicated by four stars (****))
Cc1cn2nc(-c3cc(=O)n4cc(N5CCN(C)CC5)ccc4n3)cc2c(C)n1 [Cpd 170, 2-(4,6-dimethylpyrazolo[1,5-a]pyrazin-2-yl)-7-(4-methylpiperazin-1-yl)-4H-pyrido[1,2-a]pyrimidin-4-one]	progressively more SMN2 FL mRNA	less SMN2 Δ7 mRNA	dose dependent increase in Smn protein expression	**** (an EC1.5x≤0.3 μM is indicated by four stars (****))	***** (a fold increase >1.65 is indicated by five stars (*****))
